Experimental data as given in patent US4486411A, “Beta-lactamase inhibiting 6-beta-sulfonyloxypenicillanic acid derivatives” (Pfizer Inc., priority 1981, dated 1984).
Where “and” joins values, the source holds several entries; their conditions need not be identical. Equal entries are not always repeated. Where two headings read alike, the source gives them in different places.

What was measured:
[1] = molecular target: T1, Staphylococcus aureus 01A400 beta-lactamase (Staphylococcus aureus, UniProt P00807); experiment: Inhibition of cell free beta-lactamase (beta-lactam hydrolysis); type: biochemical; settings: pH 6.5, 37° C.; for % Inhibition Beta-Lactam Hydrolysis: listed as R = C6 H5, n = 0
T1 construct: Cell-free extracts were prepared by sonic treatment; endogenous in cells; host or cells: Staphylococcus aureus 01A400, penicillin G-induced culture, cell-free extract (French press)
Method: (§1) The compounds of the present invention are also evaluated in vitro by their ability to inhibit the hydrolysis of certain beta-lactam antibiotics by beta-lactamase enzymes. The hydrolysis of ampicillin and penicillin G was determined by the microiodometric method of Novick [Biochem. J. 83, 236 (1962)].
(§2) Cephaloridine hydrolysis was measured by following the decrease in ultraviolet absorbance at 255 nm [O'Callaghan et al., Antimicrob. Agents Chemother. 1968, pp. 57-63 (1969)]. Conditions for both assays were idential: 0.5 M potassium phosphate, pH 6.5 and 37° C. Reactions were initiated by the addition of the cell-free beta-lactamase, except in the case of preincubation experiments in which the inhibitor and enzyme were incubated together in the assay mixture for 10 minutes before initiation of the reaction by addition of substrate. With the cell-free extracts of Staphylococcus aureus, Escherichia coli, Klebsiella pneumoniae and Pseudomonas aeruginosa, the substrate was ampicillin at 33 micro M (13 microg./ml.). Typical specific activities of the beta-lactamase preparations were, respectively, 6,019, 88,970, 260 and 76 micromol/hr. per mg. of protein.
(§3) Cell-free extracts were prepared by sonic treatment (using three 30-s bursts at 4° C. except for S. aureus, which was broken with a French press) of cultures grown in brain heart infusion on a rotary shaker incubator. For the S. aureus, P. aeruginosa, and E. cloacae strains, de novo synthesis of beta-lactamase was induced by growing a log-phase culture in the presence of a sublethal concentration of penicillin G at 100, 1,000, and 300 microg./ml, respectively, for 2.5 hr.

[2] = molecular target: Enterobacter cloacae 67B009 beta-lactamase (Enterobacter cloacae, UniProt P05364); experiment: as above; type: biochemical; settings: pH 6.5, 37° C.; for inhibition at 66 µM: inhibitor 66 μM; for inhibition at 16.5 µM: inhibitor 16.5 μM
Method: as §1, §2, §3

Escherichia coli 266 = experiment: MIC, brain heart infusion agar dilution; type: cell-based; settings: for MIC: Escherichia coli, 266, 18 h, alone, Table II gives two separate tests
Method: (§4) The procedure which is followed is the one recommended by the International Collaborative Study on Antibiotic Sensitivity Testing [Ericcson and Sherris, Acta. Pathologica et Microbiologia Scandinav, Supp. 217, Sections A and B: 64-68 (1971)], and employs brain heart infusion (BHI) agar and the inocula replicating device. Overnight growth tubes are diluted 100 fold for use as the standard inoculum (20,000-10,000 cells in approximately 0.002 ml. are placed on the agar surface; 20 ml. of BHI agar/dish). Twelve 2 fold dilutions of the test compound are employed, with initial concentration of the test drug being 200 mcg./ml. Single colonies are disregarded when reading plates after 18 hrs. at 37° C. The susceptibility (MIC) of the test organism is accepted as the lowest concentration of compound capable of producing complete inhibition of growth as judged by the naked eye. The manner in which the said compounds of the formula I increase the effectiveness of a beta-lactam antibiotic can be appreciated by reference to experiments in which the MIC of a given antibiotic alone, and a compound of the formula I alone, are measured. These MIC's are then compared with the MIC values obtained with a combination of the given antibiotic and the compound of the formula I wherein R^1 is hydrogen. […] The MIC values of combinations are measured using the method described by Barry and Sabath in "Manual of Clinical Microbiology", edited by Lenette, Spaulding and Truant, 2nd Edition, 1974, American Society for Microbiology.
(§5) Results of experiments illustrating that compounds of the formula II enhance the effectiveness of various beta-lactam antibiotics are reported in Tables I and II. […] It is obvious that the combination of compounds of the formula II with beta-lactam antibiotics will show synergistic activity against other bacterial strains, including some freshly isolated in the clinics. Determination of this activity is a matter of routine application of this type of testing.

Escherichia coli 2* = experiment: MIC, brain heart infusion agar dilution; type: cell-based; settings: for MIC with Cefazolin: 1:1 mixture with cefazolin; for MIC: Escherichia coli, 18 h, read-out: MIC Alone
Method: as §4, §5

Serratia marcescens = experiment: MIC, brain heart infusion agar dilution; type: cell-based; settings: for MIC: Serratia marcescens, 18 h, alone, Table II gives two separate tests
Method: as §4, §5

[3] = test system: Staphylococcus aureus 400*; experiment: MIC, brain heart infusion agar dilution; type: cell-based; settings: resistant variant
Method: as §4, §5

Klebsiella pneumonia = experiment: MIC, brain heart infusion agar dilution; type: cell-based; settings: for MIC with Ampicillin / Response with Ampicillin: 1:1 mixture with ampicillin; for MIC with Cefazolin / Response with Cefazolin: 1:1 mixture with cefazolin; for MIC: Klebsiella pneumoniae, 18 h, alone, Table II gives two separate tests
Method: as §4, §5

Proteus morgani = experiment: MIC, brain heart infusion agar dilution; type: cell-based; settings: for MIC with Ampicillin: 1:1 mixture with ampicillin; for MIC with Cefazolin / Response with Cefazolin: 1:1 mixture with cefazolin; for MIC: 18 h, alone, Table II gives two separate tests
Method: as §4, §5

Enterobacter cloacae = experiment: MIC, brain heart infusion agar dilution; type: cell-based; settings: for MIC with Ampicillin / Response with Ampicillin: 1:1 mixture with ampicillin; for MIC: Enterobacter cloacae, 18 h, alone, Table II gives two separate tests
Method: as §4, §5

Staphylococcus aureus 5 = experiment: MIC, brain heart infusion agar dilution; type: cell-based; settings: for MIC with Ampicillin: 1:1 mixture with ampicillin; for MIC: 18 hrs. at 37° C., Table II gives two separate tests
Method: as §4, §5

Pseudomonas aeruginosa = experiment: MIC, brain heart infusion agar dilution; type: cell-based; settings: for MIC with Ampicillin: 1:1 mixture with ampicillin; for MIC with Cefazolin: 1:1 mixture with cefazolin; for MIC: Pseudomonas aeruginosa, 18 h, alone, Table II gives two separate tests
Method: as §4, §5

Escherichia coli 129* = experiment: MIC, brain heart infusion agar dilution; type: cell-based; settings: for MIC with Ampicillin: 1:1 mixture with ampicillin; for MIC: Escherichia coli, 18 h, read-out: MIC Alone
Method: as §4, §5

[4] = molecular target: T2, Pseudomonas aeruginosa 52A104 beta-lactamase (Pseudomonas aeruginosa, UniProt P24735); experiment: Inhibition of cell free beta-lactamase (beta-lactam hydrolysis); type: biochemical; settings: pH 6.5, 37° C.
T2 construct: cell-free sonicate of penicillin G-induced culture
Method: as §1, §2, §3

[5] = test system: Klebsiella pneumoniae 53A129 beta-lactamase; experiment: as above; type: biochemical; settings: Ampicillin 33 μM, pH 6.5, 37° C.
Method: as §1, §2, §3

[6] = test system: Escherichia coli 51A129 beta-lactamase; experiment: as above; type: biochemical; settings: Ampicillin 33 μM, pH 6.5, 37° C.
Method: as §1, §2, §3

[7] = pH 6.5, Ampicillin 33 μM, inhibitor 66 μM
[8] = 1:1 mixture with ampicillin, resistant variant
[9] = Staphylococcus aureus, 5, alone, read-out: MIC Alone
[10] = 1:1 mixture with cefazolin, resistant variant

Sequence of Enterobacter cloacae 67B009 beta-lactamase (P05364 21-381): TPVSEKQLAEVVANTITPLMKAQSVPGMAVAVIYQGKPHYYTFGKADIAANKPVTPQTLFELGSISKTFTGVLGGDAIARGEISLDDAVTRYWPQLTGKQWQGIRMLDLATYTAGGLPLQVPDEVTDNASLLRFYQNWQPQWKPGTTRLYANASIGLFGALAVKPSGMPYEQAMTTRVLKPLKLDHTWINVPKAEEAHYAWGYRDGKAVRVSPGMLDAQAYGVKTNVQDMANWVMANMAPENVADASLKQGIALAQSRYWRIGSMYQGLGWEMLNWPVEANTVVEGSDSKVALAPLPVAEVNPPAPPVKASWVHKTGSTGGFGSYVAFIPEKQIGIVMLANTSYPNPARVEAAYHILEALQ
T1 sequence (P00807 25-281): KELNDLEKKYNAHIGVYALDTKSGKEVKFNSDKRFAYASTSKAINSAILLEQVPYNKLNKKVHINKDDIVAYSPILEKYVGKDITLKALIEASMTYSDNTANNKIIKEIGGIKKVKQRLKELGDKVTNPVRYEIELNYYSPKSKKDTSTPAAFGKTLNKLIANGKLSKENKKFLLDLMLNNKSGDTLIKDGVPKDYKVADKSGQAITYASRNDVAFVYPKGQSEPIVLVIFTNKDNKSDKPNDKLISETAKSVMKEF
T2 sequence (P24735 27-397): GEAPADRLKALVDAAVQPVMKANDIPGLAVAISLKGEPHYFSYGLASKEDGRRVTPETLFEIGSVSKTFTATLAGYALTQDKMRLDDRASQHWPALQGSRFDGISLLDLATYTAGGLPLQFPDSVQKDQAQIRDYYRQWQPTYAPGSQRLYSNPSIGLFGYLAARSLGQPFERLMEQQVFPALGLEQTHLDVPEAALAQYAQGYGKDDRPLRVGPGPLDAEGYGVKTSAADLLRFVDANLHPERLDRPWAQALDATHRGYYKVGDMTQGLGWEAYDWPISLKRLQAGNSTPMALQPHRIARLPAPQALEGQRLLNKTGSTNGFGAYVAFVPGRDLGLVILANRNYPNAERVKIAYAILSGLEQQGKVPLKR

CC1(C)[C@H](C(=O)O)N2C(=O)[C@@H](OS(=O)(=O)Cc3ccccc3)[C@H]2S1(=O)=O [R = C6 H5, n = 2, Sodium 6-beta-(alpha-Toluene-sulfonyloxy)penicillanate Sulfone]
inhibition at 66 µM [1, 7]: 36.2% | inhibition at 66 µM ([2]; pH 6.5, Penicillin G 33 μM): 0%

CC1(C)S[C@@H]2[C@H](OS(=O)(=O)Cc3ccccc3)C(=O)N2[C@H]1C(=O)O [Sodium 6-Beta-(Alpha-Toluenesulfonyloxy)penicillanate]
MIC with Ampicillin (Escherichia coli 266; 1:1 mixture with ampicillin): 3.12 µg/mL and 1.56 µg/mL | MIC (Escherichia coli 266): > 200 µg/mL | MIC with Ampicillin (Escherichia coli 2*; [8]): > 100 µg/mL | MIC with Cefazolin (Escherichia coli 2*; resistant variant): 12.5 µg/mL and 6.25 µg/mL | MIC (Escherichia coli 2*): > 200 µg/mL | MIC with Cefazolin (Serratia marcescens; 1:1 mixture with cefazolin): > 100 µg/mL | MIC (Serratia marcescens): > 200 µg/mL | Response with Ampicillin ([3]; 1:1 mixture with ampicillin): Additive | MIC with Ampicillin (Klebsiella pneumonia): > 100 µg/mL | Response with Ampicillin (Klebsiella pneumonia): Antagonism | MIC with Cefazolin (Klebsiella pneumonia): 0.78 µg/mL | Response with Cefazolin (Klebsiella pneumonia): Additive | MIC (Klebsiella pneumonia): > 200 µg/mL | MIC with Ampicillin (Proteus morgani): 3.12 µg/mL | MIC with Cefazolin (Proteus morgani): 50 µg/mL | Response with Cefazolin (Proteus morgani): Synergy | MIC (Proteus morgani): > 200 µg/mL | MIC with Ampicillin (Enterobacter cloacae): 100 µg/mL | Response with Ampicillin (Enterobacter cloacae): Synergy | MIC with Cefazolin (Enterobacter cloacae; 1:1 mixture with cefazolin): 100 µg/mL | Response with Cefazolin (Enterobacter cloacae; 1:1 mixture with cefazolin): Synergy | MIC (Enterobacter cloacae): > 200 µg/mL | MIC with Ampicillin (Staphylococcus aureus 5): ≤ 0.2 µg/mL | MIC (Staphylococcus aureus 5; Staphylococcus aureus, 5, 18 h, read-out: MIC Alone, alone): 6.25 µg/mL | MIC (Staphylococcus aureus 5; [9]): 100 µg/mL | MIC with Ampicillin (Pseudomonas aeruginosa): > 100 µg/mL | MIC with Cefazolin (Pseudomonas aeruginosa): > 100 µg/mL | MIC (Pseudomonas aeruginosa): > 200 µg/mL | MIC with Ampicillin (Escherichia coli 129*; resistant variant): > 100 µg/mL | MIC with Cefazolin (Escherichia coli 129*; [10]): 100 µg/mL and 50 µg/mL | MIC (Escherichia coli 129*): > 200 µg/mL | % Inhibition Beta-Lactam Hydrolysis ([1]; Ampicillin 33 μM, inhibitor 16.5 μM): 40.3% and 78% and 63.3% | % Inhibition Beta-Lactam Hydrolysis ([1]; Ampicillin 33 μM, inhibitor 66 μM): 91.4% and 91% | inhibition at 66 µM [1, 7]: 85% | inhibition at 66 µM ([1]; pH 6.5, Preincubation experiment (10 minutes), Ampicillin 33 μM, inhibitor 66 μM): 87.2% | inhibition at 16.5 µM ([4]; Cephaloridine 16.5 μM, inhibitor 16.5 μM): 92.6% | inhibition at 66 µM ([4]; Penicillin G 33 μM, inhibitor 66 μM): 100% | % Inhibition Beta-Lactam Hydrolysis ([5]; inhibitor 16.5 μM): 3.0% | % Inhibition Beta-Lactam Hydrolysis ([5]; inhibitor 66 μM): 0% | inhibition at 16.5 µM ([2]; pH 6.5, Cephalexin 33 μM): 100% | inhibition at 16.5 µM ([2]; pH 6.5, Cephaloridine 4 μM): 100% | inhibition at 4 µM ([2]; pH 6.5, Cephaloridine 33 μM, inhibitor 4 μM): 93.7% | inhibition at 16.5 µM ([2]; pH 6.5, Cephaloridine 33 μM): 98.3% | inhibition at 16.5 µM ([2]; pH 6.5, Penicillin G 33 μM): 96% | inhibition at 66 µM ([2]; pH 6.5, Penicillin G 33 μM): 96% | % Inhibition Beta-Lactam Hydrolysis ([6]; inhibitor 16.5 μM): 14.0% | % Inhibition Beta-Lactam Hydrolysis ([6]; inhibitor 66 μM): 15.8%

CC1(C)S[C@@H]2[C@H](OS(C)(=O)=O)C(=O)N2[C@H]1C(=O)O [Sodium Methanesulfonyloxypenicillanate, Sodium 6-beta-(Methanesulfonyloxy)penicillanate]
MIC with Ampicillin (Escherichia coli 266; 1:1 mixture with ampicillin): 3.12 µg/mL | Response with Ampicillin (Escherichia coli 266; 1:1 mixture with ampicillin): Antagonism | MIC (Escherichia coli 266): > 200 µg/mL | MIC with Ampicillin (Escherichia coli 2*; [8]): 100 µg/mL | Response with Ampicillin (Escherichia coli 2*; [8]): Additive | MIC with Cefazolin (Escherichia coli 2*; resistant variant): 6.25 µg/mL | MIC (Escherichia coli 2*): > 200 µg/mL | MIC with Ampicillin (Serratia marcescens; 1:1 mixture with ampicillin): 25 µg/mL | Response with Ampicillin (Serratia marcescens; 1:1 mixture with ampicillin): Antagonism | MIC with Cefazolin (Serratia marcescens; 1:1 mixture with cefazolin): 100 µg/mL | Response with Cefazolin (Serratia marcescens; 1:1 mixture with cefazolin): Synergy | MIC (Serratia marcescens): > 200 µg/mL | MIC with Ampicillin ([3]; 1:1 mixture with ampicillin): 3.12 µg/mL | Response with Ampicillin ([3]; 1:1 mixture with ampicillin): Additive | MIC with Cefazolin ([3]; 1:1 mixture with cefazolin): ≥ 0.2 µg/mL | Response with Cefazolin ([3]; 1:1 mixture with cefazolin): Synergy | MIC ([3]; Staphylococcus aureus, 18 h, read-out: MIC Alone, alone, Table II gives two separate tests): 6.25 µg/mL | MIC with Ampicillin (Klebsiella pneumonia): 100 µg/mL | Response with Ampicillin (Klebsiella pneumonia): Antagonism | MIC with Cefazolin (Klebsiella pneumonia): 1.56 µg/mL | Response with Cefazolin (Klebsiella pneumonia): No effect | MIC (Klebsiella pneumonia): > 200 µg/mL | MIC with Ampicillin (Proteus morgani): 1.56 µg/mL | MIC with Cefazolin (Proteus morgani): 25 µg/mL | Response with Cefazolin (Proteus morgani): Synergy | MIC (Proteus morgani): > 200 µg/mL | MIC with Ampicillin (Enterobacter cloacae): 100 µg/mL | Response with Ampicillin (Enterobacter cloacae): Synergy | MIC with Cefazolin (Enterobacter cloacae; 1:1 mixture with cefazolin): > 100 µg/mL | MIC (Enterobacter cloacae): > 200 µg/mL | MIC with Ampicillin (Staphylococcus aureus 5): ≤ 0.2 µg/mL | MIC (Staphylococcus aureus 5; [9]): 12.5 µg/mL | MIC with Ampicillin (Pseudomonas aeruginosa): > 100 µg/mL | MIC with Cefazolin (Pseudomonas aeruginosa): > 100 µg/mL | MIC (Pseudomonas aeruginosa): > 200 µg/mL | MIC with Ampicillin (Escherichia coli 129*; resistant variant): > 100 µg/mL | MIC with Cefazolin (Escherichia coli 129*; [10]): 50 µg/mL | Response with Cefazolin (Escherichia coli 129*; [10]): Antagonism | MIC (Escherichia coli 129*): > 200 µg/mL | inhibition at 16.5 µM ([1]; pH 6.5, Ampicillin 33 μM, inhibitor 16.5 μM): 100% | inhibition at 66 µM [1, 7]: 100% | % Inhibition Beta-Lactam Hydrolysis ([5]; inhibitor 16.5 μM): 0% | inhibition at 66 µM ([2]; pH 6.5, Penicillin G 33 μM): 66.7% | % Inhibition Beta-Lactam Hydrolysis ([6]; inhibitor 66 μM): 4.4%
